Biological target: T1, Hsp90αN (N-terminal domain of human Hsp90α) (Homo sapiens, UniProt P07900)
T1 construct: gene HSP90AA1; N-terminal domain, amino acids 3–241, N-terminal His6 tag
Experiment: ITC; weak ligand displaced by radicicol (association constant Kb given)
Assay type: binding

For COCCOC(=O)c1ccc(O)cc1O [compound 1], the Kd was 50 µM.

Source: article PMC2705510, “Measurement of Nanomolar Dissociation Constants by Titration Calorimetry and Thermal Shift Assay – Radicicol Binding to Hsp90 and Ethoxzolamide Binding to CAII” (2009)
